In patent US10588317B2, “Isoxazoline-substituted benzamides and analogues as insecticides” (priority 2015, dated 2020):

Tests used:
Format in all cases: in vivo
[1] = tested on: Diabrotica balteata; test: Diabrotica balteata (corn root worm), sprayed maize sprouts; conditions: 96 h, application rate 200 ppm, L2 larvae, 4 days after infestation, read-out: effect in at least one of the two categories (mortality or growth inhibition)
Outline: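 Read-out at 4 days post-infestation: mortality and growth inhibition relative to untreated samples. Test solutions (200 ppm, from DMSO stocks) were sprayed onto agar-held maize sprouts, which after drying received 6–10 L2 larvae per well.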

[2] = tested on: Euschistus heros; test: Euschistus heros (neotropical brown stink bug), sprayed soybean leaves; conditions: 120 h, application rate 200 ppm, N2 nymphs, 5 days after infestation, read-out: effect in at least one of the two categories (mortality or growth inhibition)
Outline: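 Scored 5 days post-infestation versus untreated controls, for both mortality and growth inhibition: N2 nymphs placed on agar-mounted soybean leaves previously sprayed at 200 ppm with aqueous test solutions from DMSO stocks and left to dry.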

[3] = tested on: Myzus persicae; test: Myzus persicae (green peach aphid): feeding/contact activity; conditions: 144 h, application rate 200 ppm, aphid population of mixed ages, 6 days after infestation, read-out: mortality
Protocol: (§1) Sunflower leaf discs were placed onto agar in a 24-well microtiter plate and sprayed with aqueous test solutions prepared from 10'000 ppm DMSO stock solutions. After drying, the leaf discs were infested with an aphid population of mixed ages. The samples were assessed for mortality 6 days after infestation.

[4] = tested on: Plutella xylostella; test: Plutella xylostella (diamond back moth), artificial diet; conditions: 120 h, application rate 200 ppm, L2 larvae, 5 days after infestation, read-out: effect in at least one of the two categories (mortality or growth inhibition)
Outline: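 L2 larvae (10-15 per well) fed on compound-treated, dried artificial diet; test solutions diluted in water from 10'000 ppm DMSO stocks. Readout 5 days post-infestation as mortality or growth inhibition versus untreated diet, with at least 80% effect at 200 ppm as threshold.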

[5] = tested on: Spodoptera littoralis; test: Spodoptera littoralis (Egyptian cotton leaf worm), sprayed cotton leaf discs; conditions: foliar, 72 h, application rate 200 ppm, L1 larvae, 3 days after infestation, read-out: control (mortality, anti-feeding effect, growth inhibition)
Outline: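 Five first-instar larvae placed on dried cotton leaf discs (on agar) previously sprayed with aqueous dilutions of 10'000 ppm DMSO stocks. Scored at 3 days against untreated discs for mortality, feeding inhibition and growth inhibition; any category above untreated counts as control.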

[6] = tested on: Spodoptera littoralis; test: Spodoptera littoralis (Egyptian cotton leaf worm), uptake by lettuce roots from agar; conditions: 144 h, read-out: effect in at least one of the three categories (mortality, anti-feeding, or growth inhibition);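 note: 12.5 ppm test rate in agar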
Outline: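 Systemic test: Spodoptera eggs placed on lettuce leaves from seedlings raised 7 days on agar containing the compound (diluted from 10'000 ppm DMSO stock). Six days after infestation, larvae scored against untreated controls for mortality, feeding deterrence and growth inhibition.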

[7] = tested on: Tetranychus urticae; test: Tetranychus urticae (two-spotted spider mite): feeding/contact activity; conditions: 192 h, application rate 200 ppm, mixed population (mobile stages), 8 days after infestation, read-out: mortality
Protocol: Bean leaf discs on agar in 24-well microtiter plates were sprayed with aqueous test solutions prepared from 10'000 ppm DMSO stock solutions. After drying the leaf discs were infested with a mite population of mixed ages. The samples were assessed for mortality on mixed population (mobile stages) 8 days after infestation.

[8] = tested on: Thrips tabaci; test: Thrips tabaci (onion thrips): feeding/contact activity; conditions: 144 h, application rate 200 ppm, Thrips population of mixed ages, 6 days after infestation, read-out: mortality
Protocol: as §1, with “on” for “onto”, “in” for “in a”, “plates” for “plate”, “drying” for “drying,”, “a Thrips” for “an aphid”

CCN(C)S(=O)(=O)N1C[C@@H](NC(=O)c2ccc(C3=NO[C@@](c4cc(Cl)c(F)c(Cl)c4)(C(F)(F)F)C3)cc2Cl)CO1 [Compound A131, 2-chloro-4-[(5S)-5-(3,5-dichloro-4-fluoro-phenyl)-5-(trifluoromethyl)-4H-isoxazol-3-yl]-N-[(4R)-2-[ethyl(methyl)sulfamoyl]isoxazolidin-4-yl]benzamide]
≥ 80%: percent effect (mortality or growth inhibition) at 200 ppm [1] | percent effect (mortality or growth inhibition) at 200 ppm [2] | mortality at 200 ppm [3] | percent effect (mortality or growth inhibition) at 200 ppm [4] | mortality at 200 ppm [5] | percent control (mortality, anti-feedant effect or growth inhibition) at 12.5 ppm [6] | mortality at 200 ppm [7] | mortality at 200 ppm [8]

Cc1cc(C2=NOC(c3cc(Cl)c(Cl)c(Cl)c3)(C(F)(F)F)C2)ccc1C(=O)NC1CON(S(C)(=O)=O)C1 (centres unmarked) [Compound A61]
≥ 80%: percent effect (mortality or growth inhibition) at 200 ppm [1] | percent effect (mortality or growth inhibition) at 200 ppm [2] | mortality at 200 ppm [3] | percent effect (mortality or growth inhibition) at 200 ppm [4] | mortality at 200 ppm [5] | percent control (mortality, anti-feedant effect or growth inhibition) at 12.5 ppm [6] | mortality at 200 ppm [7] | mortality at 200 ppm [8]

CCNS(=O)(=O)N1C[C@@H](NC(=O)c2ccc(C3=NO[C@@](c4cc(Cl)c(Cl)c(Cl)c4)(C(F)(F)F)C3)cc2C)CO1 [Compound A136, N-[(4R)-2-(ethylsulfamoyl)isoxazolidin-4-yl]-2-methyl-4-[(5S)-5-(3,4,5-trichlorophenyl)-5-(trifluoromethyl)-4H-isoxazol-3-yl]benzamide]
≥ 80%: percent effect (mortality or growth inhibition) at 200 ppm [1] | percent effect (mortality or growth inhibition) at 200 ppm [2] | mortality at 200 ppm [3] | percent effect (mortality or growth inhibition) at 200 ppm [4] | mortality at 200 ppm [5] | percent control (mortality, anti-feedant effect or growth inhibition) at 12.5 ppm [6] | mortality at 200 ppm [7] | mortality at 200 ppm [8]

CCNS(=O)(=O)N1C[C@@H](NC(=O)c2ccc(C3=NO[C@@](c4cc(Cl)cc(C(F)(F)F)c4)(C(F)(F)F)C3)cc2Cl)CO1 [Compound A128]
≥ 80%: percent effect (mortality or growth inhibition) at 200 ppm [1] | percent effect (mortality or growth inhibition) at 200 ppm [2] | mortality at 200 ppm [3] | percent effect (mortality or growth inhibition) at 200 ppm [4] | mortality at 200 ppm [5] | percent control (mortality, anti-feedant effect or growth inhibition) at 12.5 ppm [6] | mortality at 200 ppm [7] | mortality at 200 ppm [8]

CNS(=O)(=O)N1C[C@@H](NC(=O)c2ccc(C3=NO[C@@](c4cc(Cl)c(Cl)c(Cl)c4)(C(F)(F)F)C3)cc2C)CO1 [Compound A67, 2-methyl-N-[(4R)-2-(methylsulfamoyl)isoxazolidin-4-yl]-4-[(5S)-5-(3,4,5-trichlorophenyl)-5-(trifluoromethyl)-4H-isoxazol-3-yl]benzamide]
≥ 80%: percent effect (mortality or growth inhibition) at 200 ppm [1] | percent effect (mortality or growth inhibition) at 200 ppm [2] | mortality at 200 ppm [3] | percent effect (mortality or growth inhibition) at 200 ppm [4] | mortality at 200 ppm [5] | percent control (mortality, anti-feedant effect or growth inhibition) at 12.5 ppm [6] | mortality at 200 ppm [7] | mortality at 200 ppm [8]

Cc1cc(C2=NO[C@@](c3cc(Cl)c(F)c(Cl)c3)(C(F)(F)F)C2)ccc1C(=O)N[C@@H]1CON(S(=O)(=O)N(C)C)C1 (single isomer, unassigned) [Compound A34]
≥ 80%: percent effect (mortality or growth inhibition) at 200 ppm [1] | percent effect (mortality or growth inhibition) at 200 ppm [2] | mortality at 200 ppm [3] | percent effect (mortality or growth inhibition) at 200 ppm [4] | mortality at 200 ppm [5] | percent control (mortality, anti-feedant effect or growth inhibition) at 12.5 ppm [6] | mortality at 200 ppm [7] | mortality at 200 ppm [8]

CCS(=O)(=O)N1C[C@@H](NC(=O)c2ccc(C3=NO[C@@](c4cc(Cl)cc(C(F)(F)F)c4)(C(F)(F)F)C3)cc2C)CO1 [Compound A120, 4-[(5S)-5-[3-chloro-5-(trifluoromethyl)phenyl]-5-(trifluoromethyl)-4H-isoxazol-3-yl]-N-[(4R)-2-ethylsulfonylisoxazolidin-4-yl]-2-methyl-benzamide]
≥ 80%: percent effect (mortality or growth inhibition) at 200 ppm [1] | percent effect (mortality or growth inhibition) at 200 ppm [2] | mortality at 200 ppm [3] | percent effect (mortality or growth inhibition) at 200 ppm [4] | mortality at 200 ppm [5] | percent control (mortality, anti-feedant effect or growth inhibition) at 12.5 ppm [6] | mortality at 200 ppm [7] | mortality at 200 ppm [8]
